Broadly, the melting point is the temperature of the solid-liquid transition.

For `Cc1cc(NS(=O)(=O)c2ccc(NCCC(=O)O)cc2)no1` [Compound 2, 3-((4-(N-(5-methylisoxazol-3-yl)sulfamoyl)phenyl)amino)propanoic acid], the melting point was 188 to 189 °C. The result for `COC(=O)CCNc1ccc(S(=O)(=O)Nc2cc(C)on2)cc1` [Compound 3, Methyl 3-((4-(N-(5-methylisoxazol-3-yl)sulfamoyl)phenyl)amino)propanoate] reads 148 to 149 °C; that for `Cc1cc(NS(=O)(=O)c2ccc(N3CCC(=O)NC3=S)cc2)no1` [Compound 6, N-(5-methylisoxazol-3-yl)-4-(4-oxo-2-thioxotetrahydropyrimidin-1(2H)-yl)benzenesulfonamide], 240 to 241 °C.

On to `Cc1cc(NS(=O)(=O)c2ccc(N(CCC(=O)O)C(N)=S)cc2)no1` [Compound 6a, 3-(1-(4-(N-(5-methylisoxazol-3-yl)sulfamoyl)phenyl)thioureido)propanoic acid], for which the melting point lay in the range of 182 to 183 °C.

For the compound `Cc1cc(NS(=O)(=O)c2ccc(NC=CC(=O)Nc3ccc(S(N)(=O)=O)cc3)cc2)no1` [Compound 7, 3-((4-(N-(5-methylisoxazol-3-yl)sulfamoyl)phenyl)amino)-N-(4-sulfamoylphenyl)propenamide], the melting point is 213 to 214 °C. Compound `Cc1cc(NS(=O)(=O)c2ccc(NC=CC(=O)Nn3c(C)ccc3C)cc2)no1` [Compound 8, N-(2,5-dimethyl-1H-pyrrol-1-yl)-3-((4-(N-(5-methylisoxazol-3-yl)sulfamoyl)phenyl)amino)propenamide] yielded a melting point of 118 to 119 °C. In turn, `Cc1cc(C)n(C(=O)CCNc2ccc(S(=O)(=O)Nc3cc(C)on3)cc2)n1` [Compound 9, 4-((3-(3,5-Dimethyl-1H-pyrazol-1-yl)-3-oxopropyl)amino)-N-(5-methylisoxazol-3-yl)benzenesulfonamide] displayed a melting point of 144 to 145 °C. The result for `Cc1cc(NS(=O)(=O)c2ccc(NCCC(=O)NNC(=O)Nc3ccccc3)cc2)no1` [Compound 10, 2-(3-((4-(N-(5-methylisoxazol-3-yl)sulfamoyl)phenyl)amino)propanoyl)-N-phenylhydrazine-1-carboxamide] reads 204 to 205 °C; that for `Cc1cc(NS(=O)(=O)c2ccc(NCCC(=O)NNC(=S)Nc3ccccc3)cc2)no1` [Compound 11, 2-(3-((4-(N-(5-methylisoxazol-3-yl)sulfamoyl)phenyl)amino)propanoyl)-N-phenylhydrazine-1-carbothioamide], 183 to 184 °C.

Turning to `Cc1cc(NS(=O)(=O)c2ccc(NCCc3n[nH]c(=O)n3-c3ccccc3)cc2)no1` [Compound 12, N-(5-methylisoxazol-3-yl)-4-((2-(5-oxo-4-phenyl-4,5-dihydro-1H-1,2,4-triazol-3-yl)ethyl)amino)-benzenesulfonamide], the melting point was in the range of 188 to 189 °C.

`Cc1cc(NS(=O)(=O)c2ccc(NCCc3n[nH]c(=S)n3-c3ccccc3)cc2)no1` [Compound 13, N-(5-methylisoxazol-3-yl)-4-((2-(4-phenyl-5-thioxo-4,5-dihydro-1H-1,2,4-triazol-3-yl)ethyl)amino)-benzenesulfonamide] yielded a melting point of 222 to 223 °C. With `Cc1cc(NS(=O)(=O)c2ccc(NCCC(=O)NN=C3C(=O)Nc4ccccc43)cc2)no1` [Compound 14, N-(5-methylisoxazol-3-yl)-4-((3-oxo-3-(2-(2-oxoindolin-3-ylidene)hydrazineyl)propyl)amino)-benzenesulfonamide] the figure was 209 to 210 °C; with `Cc1cc(NS(=O)(=O)c2ccc(NCCC(=O)NN=Cc3ccccc3)cc2)no1` [Compound 15a, 4-((3-(2-Benzylidenehydrazineyl)-3-oxopropyl)amino)-N-(5-methylisoxazol-3-yl)benzenesulfonamide], 199 to 200 °C; with `Cc1cc(NS(=O)(=O)c2ccc(NCCC(=O)NN=Cc3ccccc3O)cc2)no1` [Compound 15b, 4-((3-(2-(2-Hydroxybenzylidene)hydrazineyl)-3-oxopropyl)amino)-N-(5-methylisoxazol-3-yl)benzene-sulfonamide], 193 to 194 °C. The result for `Cc1cc(NS(=O)(=O)c2ccc(NCCC(=O)NN=Cc3ccc(O)cc3)cc2)no1` [Compound 15c, 4-((3-(2-(4-Hydroxybenzylidene)hydrazineyl)-3-oxopropyl)amino)-N-(5-methylisoxazol-3-yl)benzene-sulfonamide] reads 218 to 219 °C; that for `Cc1cc(NS(=O)(=O)c2ccc(NCCC(=O)NN=Cc3ccc(F)cc3)cc2)no1` [Compound 15d, 4-((3-(2-(4-Fluorobenzylidene)hydrazineyl)-3-oxopropyl)amino)-N-(5-methylisoxazol-3-yl)benzene-sulfonamide], 213 to 214 °C. With `Cc1cc(NS(=O)(=O)c2ccc(NCCC(=O)NN=Cc3ccc(Cl)cc3)cc2)no1` [Compound 15f, 4-((3-(2-(4-Chlorobenzylidene)hydrazineyl)-3-oxopropyl)amino)-N-(5-methylisoxazol-3-yl)benzene-sulfonamide], the melting point is 210 to 211 °C.

Consider `COc1ccc(C=NNC(=O)CCNc2ccc(S(=O)(=O)Nc3cc(C)on3)cc2)cc1` [Compound 15g, 4-((3-(2-(4-Methoxybenzylidene)hydrazineyl)-3-oxopropyl)amino)-N-(5-methylisoxazol-3-yl)benzene-sulfonamide], for which the melting point fell in the range of 206 to 207 °C. Regarding `Cc1cc(NS(=O)(=O)c2ccc(NCCC(=O)NN=Cc3cccc([N+](=O)[O-])c3)cc2)no1` [Compound 15h, 4-((3-(2-(3-Nitrobenzylidene)hydrazineyl)-3-oxopropyl)amino)-N-(5-methylisoxazol-3-yl)benzene-sulfonamide], the melting point is 208 to 209 °C. Take `Cc1cc(NS(=O)(=O)c2ccc(NCCC(=O)NN=Cc3cc([N+](=O)[O-])ccc3Cl)cc2)no1` [Compound 15i, 4-((3-(2-(2-Chloro-5-nitrobenzylidene)hydrazineyl)-3-oxopropyl)amino)-N-(5-methylisoxazol-3-yl)benzenesulfonamide]: the melting point fell in the range of 210 to 211 °C.

Consider `Cc1cc(NS(=O)(=O)c2ccc(NCCC(=O)NN=Cc3ccc([N+](=O)[O-])cc3)cc2)no1` [Compound 15j, 4-((3-(2-(4-Nitrobenzylidene)hydrazineyl)-3-oxopropyl)amino)-N-(5-methylisoxazol-3-yl)benzene-sulfonamide], for which the melting point was in the range of 214 to 215 °C. The compound `Cc1cc(NS(=O)(=O)c2ccc(NCCC(=O)NN=Cc3ccco3)cc2)no1` [Compound 16a, 4-((3-(2-(Furan-2-ylmethylene)hydrazineyl)-3-oxopropyl)amino)-N-(5-methylisoxazol-3-yl)benzene-sulfonamide] gave a melting point of 185 to 186 °C. The result for `Cc1cc(NS(=O)(=O)c2ccc(NCCC(=O)NN=Cc3cccs3)cc2)no1` [Compound 16c, N-(5-methylisoxazol-3-yl)-4-((3-oxo-3-(2-(thiophen-2-ylmethylene)hydrazineyl)propyl)amino)-benzenesulfonamide] reads 215 to 216 °C.

(Values after publication PMC10035904, “Synthesis of novel sulphamethoxazole derivatives and exploration of their anticancer and antimicrobial properties” (PLOS ONE, 2023).)
